Experimental data from patent publication US20240415819A1, “MACROCYCLIC COMPOUNDS AS PROTEASOME SUBUNIT BETA TYPE-5 INHIBITORS” (Lead Discovery Center GmbH, priority 2021, published 2024).
Read-outs that look alike come from different tables or passages of the source.

Tests used:
[1] = system: A549 (human lung carcinoma cell line); test: Glo assay of A549 cells (Table 3; ProteasomeGlo plating scheme); type: cell-based; conditions: Homo sapiens
Summary of the method: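 Luminescent read-out of cellular chymotrypsin-like proteasome activity: cells exposed to compound 105 min at 37° C., 5% CO2, then given Suc-LLVY-Glo reagent, shaken 2-5 min and kept dark 10-15 min before reading. Values are IC50 [nM].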

[2] = system: RPMI 8226 (B lymphocyte cell line, multiple myeloma); test: 48 hr CTG viability assay, RPMI 8226; type: cell-based; conditions: Homo sapiens
Summary of the method: (§1)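 Growth inhibition by compound over 48 h; IC50 (nM) derived from duplicate CellTiter-Glo luminescence readings across 0.0015–10 uM.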

[3] = system: MM1 S (B lymphoblast cell line); test: 48 hr CTG viability assay, MM1S; type: cell-based; conditions: Homo sapiens
Summary of the method: as §1

[4] = molecular target: T1, β5 subunit of the human immunoproteasome (IPS) (Homo sapiens, UniProt P28062); test: β5 inhibition assay, human immunoproteasome (Suc-LLVY-AMC); type: biochemical; conditions: IC50 class, Suc-LLVY-AMC substrate
T1 construct: purchased Boston Biochem E-370
Summary of the method: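 β5 activity is read as liberated AMC fluorescence (355/460 nm) after 4 h dark reaction at RT with 22.6 μM Suc-LLVY-AMC, stopped by 1 μM bortezomib. Beforehand, 1 nM human IPS and compound sat 10 min at RT in HEPES pH 7.5 buffer containing NaCl, 0.02% SDS and DTT.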

[5] = molecular target: T2, β5 subunit of the human constitutive proteasome (CPS) (Homo sapiens, UniProt P28074); test: β5 inhibition assay, human constitutive proteasome (Suc-LLVY-AMC); type: biochemical; conditions: IC50 class, Suc-LLVY-AMC substrate
T2 construct: purchased Boston Biochem E-360
Experimental: The enzymatic activity of the β5 subunit of the human constitutive proteasome (CPS) is analyzed. In another assay, which differs from the assay of the human constitutive proteasome only in using the human immunoproteasome (IPS) the enzymatic activity of the β5 subunit of the human immunoproteasome (IPS) is analyzed. […] Inhibition is indicated as IC50 [nM] (“-”=not measured).

[6] = system: Hs 746T (human gastric carcinoma cell line); test: 48 hr CTG viability assay, Hs 746T; type: cell-based; conditions: Hs746T
Summary of the method: as §1

[7] = A549 cells, read-out: PGLo A549
[8] = RPMI-8226, 48 hr CTG, read-out: RPMI-8226 IC50
[9] = 48 hr CTG, read-out: Hs 746T IC50
[10] = RPMI-8226, 48 h, read-out: RPMI-8226 IC50 [nM]
[11] = 48 h, read-out: Hs 746T IC50 [nM]

Measured: IC50

O=C(Cc1ccccc1)N[C@H]1CC(=O)N2CCCC(CCOc3ccc(F)c(c3)CNC(=O)[C@H](CCc3ccccc3)NC1=O)C2 (stereo partly drawn) [Compound 661, N-((9S,12S)-5^4-fluoro-8,11,14-trioxo-9-phenethyl-4-oxa-7,10-diaza-1(3,1)-piperidina-5(1,3)-benzenacyclotetradecaphane-12-yl)-2-phenylacetamide]
< 100 nM: [1]; [7] | [2]; [8] | [3]; 48 hr CTG, read-out: MM1S IC50 | [4] | [5] | [6]; [9]

Cc1ccc2cc1CNC(=O)[C@H](CCc1ccccc1)NC(=O)[C@@H](NC(=O)CCNCc1ccc(-c3ccncc3)cc1)CC(=O)N1CCCC(CCO2)C1 (stereo partly drawn) [Compound 603, N-((9S,12S)-5^4-methyl-8,11,14-trioxo-9-phenethyl-4-oxa-7,10-diaza-1(3,1)-piperidina-5(1,3)-benzenacyclotetradecaphane-12-yl)-3-((4-(pyridin-4-yl)benzyl)amino)propanamide]
< 100 nM: [1]; [7] | [2]; [8] | [3]; 48 hr CTG, read-out: MM1S IC50 | [4] | [5] | [6]; [9]

Cc1ccc2cc1CNC(=O)[C@H](CCc1ccccc1)NC(=O)[C@@H](NC(=O)CCN1CCC3(CCC3)CC1)CC(=O)N1CCCC(CCO2)C1 (stereo partly drawn) [Compound 638, N-((9S,12S)-5^4-methyl-8,11,14-trioxo-9-phenethyl-4-oxa-7,10-diaza-1(3,1)-piperidina-5(1,3)-benzenacyclotetradecaphane-12-yl)-3-(7-azaspiro[3.5]nonan-7-yl)propanamide]
< 100 nM: [1]; [7] | [2]; [8] | [3]; 48 hr CTG, read-out: MM1S IC50 | [4] | [5] | [6]; [9]

Cc1ccc2cc1CNC(=O)[C@H](CCc1ccccc1)NC(=O)[C@@H](NC(=O)N1CC(C)(C)c3cc(N)ccc31)CC(=O)N1CCCC(CCO2)C1 (stereo partly drawn) [Compound 666, 5-amino-3,3-dimethyl-N-((9S,12S)-5^4-methyl-8,11,14-trioxo-9-phenethyl-4-oxa-7,10-diaza-1(3,1)-piperidina-5(1,3)-benzenacyclotetradecaphane-12-yl)indoline-1-carboxamide]
< 100 nM: [1]; [7] | [2]; [8] | [3]; 48 hr CTG, read-out: MM1S IC50 | [4] | [5] | [6]; [9]

Cc1ccc2cc1CNC(=O)[C@H](CCc1ccccc1)NC(=O)[C@@H](NC(=O)CCNC(=O)C1CC3CCC1O3)CC(=O)N1CCCC(CCO2)C1 (stereo partly drawn) [Compound 701, N-(3-(((9S,12S)-5^4-methyl-8,11,14-trioxo-9-phenethyl-4-oxa-7,10-diaza-1(3,1)-piperidina-5(1,3)-benzenacyclotetradecaphane-12-yl)amino)-3-oxopropyl)-7-oxabicyclo[2.2.1]heptane-2-carboxamide]
< 100 nM: [1]; [7] | [2]; [8] | [3]; 48 hr CTG, read-out: MM1S IC50 | [4] | [5] | [6]; [9]

Cc1ccc2cc1CNC(=O)[C@H](CCc1cccnc1)NC(=O)[C@@H](NC(=O)Cc1ccc(N)cc1C)CC(=O)N1CCCC(CCO2)C1 (stereo partly drawn) [Compound 645, 2-(4-amino-2-methylphenyl)-N-((9S,12S)-5^4-methyl-8,11,14-trioxo-9-(2-(pyridin-3-yl)ethyl)-4-oxa-7,10-diaza-1(3,1)-piperidina-5(1,3)-benzenacyclotetradecaphane-12-yl)acetamide]
< 100 nM: [1]; [7] | [2]; [8] | [3]; 48 hr CTG, read-out: MM1S IC50 | [4] | [5] | [6]; [9]

Cc1ccc2cc1CNC(=O)[C@H](CCc1ccccc1)NC(=O)[C@@H](NC(=O)CCOCC1CC3(CCC3)C1)CC(=O)N1CCCC(CCO2)C1 (stereo partly drawn) [Compound 615, N-((9S,12S)-5^4-methyl-8,11,14-trioxo-9-phenethyl-4-oxa-7,10-diaza-1(3,1)-piperidina-5(1,3)-benzenacyclotetradecaphane-12-yl)-3-(spiro[3.3]heptan-2-ylmethoxy)propanamide]
< 100 nM: [1]; [7] | [2]; [8] | [3]; 48 hr CTG, read-out: MM1S IC50 | [4] | [5] | [6]; [9]

Cc1ccc2cc1CNC(=O)[C@H](CCc1ccccc1)NC(=O)[C@@H](NC(=O)CCOCC1CC3CCC1C3)CC(=O)N1CCCC(CCO2)C1 (stereo partly drawn) [Compound 614, 3-(bicyclo[2.2.1]heptan-2-ylmethoxy)-N-((9S,12S)-5^4-methyl-8,11,14-trioxo-9-phenethyl-4-oxa-7,10-diaza-1(3,1)-piperidina-5(1,3)-benzenacyclotetradecaphane-12-yl)propanamide]
< 100 nM: [1]; [7] | [2]; [8] | [3]; 48 hr CTG, read-out: MM1S IC50 | [4] | [5] | [6]; [9]

COc1cccc(CCOCCC(=O)N[C@H]2CC(=O)N3CCCC(CCOc4ccc(C)c(c4)CNC(=O)[C@H](CCc4ccccc4)NC2=O)C3)c1 (stereo partly drawn) [Compound 581, 3-(3-methoxyphenethoxy)-N-((9S,12S)-5^4-methyl-8,11,14-trioxo-9-phenethyl-4-oxa-7,10-diaza-1(3,1)-piperidina-5(1,3)-benzenacyclotetradecaphane-12-yl)propanamide]
< 100 nM: [1]; [7] | [2]; [8] | [3]; 48 hr CTG, read-out: MM1S IC50 | [4] | [5] | [6]; [9]

Cc1ccc2cc1CNC(=O)[C@H](CCc1ccccc1)NC(=O)[C@@H](NC(=O)CCN1CCC1)CC(=O)N1CCCC(CCO2)C1 (stereo partly drawn) [Compound 702, 3-(azetidin-1-yl)-N-((9S,12S)-5^4-methyl-8,11,14-trioxo-9-phenethyl-4-oxa-7,10-diaza-1(3,1)-piperidina-5(1,3)-benzenacyclotetradecaphane-12-yl)propanamide]
< 100 nM: [1]; A549, read-out: PGLo A549 [nM] | [2]; [10] | [3]; 48 h, read-out: MM1S IC50 [nM] | [4] | [5] | [6]; [11]

Cc1ccc2cc1CNC(=O)[C@H](CCc1ccccc1)NC(=O)[C@@H](NC(=O)Cc1ccccc1)CCN(C)C(=O)N1CCCC(CCO2)C1 (stereo partly drawn) [Compound 696, N-((9S,12S)-5^4,15-dimethyl-8,11,16-trioxo-9-phenethyl-4-oxa-7,10,15-triaza-1(3,1)-piperidina-5(1,3)-benzenacyclohexadecaphane-12-yl)-2-phenylacetamide]
< 100 nM: [1]; A549, read-out: PGLo A549 [nM] | [2]; [10] | [3]; 48 h, read-out: MM1S IC50 [nM] | [4] | [5] | [6]; [11]
